Experimental data published in patent US20130045483A1, “YEAST CELLS EXPRESSING AMYLOID BETA AND USES THEREFOR” (priority 2011, published 2013).

Assays:
ssAβ 1-42 strain = experiment: Clioquinol rescue in liquid culture (Bioscreen OD600 growth); type: cell-based, yeast; conditions: for growth of the Aβ expressing strain: inducing (galactose) media, various concentrations; for growth at the optimal concentration compared with control strain: control strain expressing YFP
Protocol: (§1) To further test the effect of clioquinol, a control strain and a strain expressing toxic levels of Aβ were grown in liquid culture with various concentrations of the compound.
Yeast strains were grown overnight to saturation in synthetic medium with glucose as the carbon source after inoculation from a colony. These cultures were used to inoculate raffinose cultures. Raffinose cultures in log phase growth (OD600 0.7-0.9) were diluted to an OD600 of 0.03 in synthetic medium with galactose as the carbon source, and […] of the cell suspension was distributed to each well of a Bioscreen plate. […] of clioquinol (Sigma C8133, ˜95%), dissolved in DMSO at 100 times the final intended concentration, was added to each well. A Labsystems Bioscreen C was used to maintain the plate at 30 degrees C. and make OD600 measurements on each well at 10-minute intervals over a period of approximately three days. Each condition was performed in duplicate.

GAL controlled YFP = experiment: GAL1-induced expression, flow cytometry of GAL controlled YFP; type: cell-based, yeast; conditions: flow cytometry of GAL controlled YFP (data not shown)
Protocol: as §1
A strain carrying an integrated YFP was transformed with the putative Aβ suppressors. The resulting strains were grown in glucose media in a 96 well format, diluted into the various inducing media (galactose, glucose+1 uM estradiol, glycerol+1 uM estradiol) [5 ul culture added to 120 ul media], and incubated over night at 30° C. with mild shaking. These overnight cultures were diluted 20 fold into water and YFP levels were measured using a Guava flow cytometer. Each strain was measured 3 times and 5000 cells were counted for each well. The whole experiment was repeated 3 times. Values are averages of these 3 experiments and reported in percent of the vector control strain YFP levels.

Oc1c(I)cc(Cl)c2cccnc12 [clioquinol]
toxicity at higher concentrations (ssAβ 1-42 strain; higher concentrations, ssAβ 1-42 strain and YFP control strain): toxic to both strains | growth of the Aβ expressing strain (ssAβ 1-42 strain): rescued growth levels in a dose dependent manner | growth of the Aβ expressing strain (ssAβ 1-42 strain; listed as Clioquinol): improved the growth of the Aβ expressing strain in a dose dependent manner | growth at the optimal concentration compared with control strain (ssAβ 1-42 strain): restored growth levels to those of a control strain expressing YFP | growth at the optimal concentration compared with control strain (ssAβ 1-42 strain; listed as Clioquinol): nearly as robust as that of the control strain | effect on GAL1-induced expression (GAL controlled YFP): did not diminish GAL1-induced expression
